Data from patent publication EP4818168A1, “FUSED RING COMPOUND, PHARMACEUTICAL COMPOSITION THEREOF AND USE THEREOF” (priority 2023, dated 2025).
Read-outs that look alike come from different tables or passages of the source.

Columns and labels:
HCC1806 cells = assay: CTG assay of compound inhibition on cell viability (HCC1806 cells); assay type: cell-based; conditions: Homo sapiens, HCC1806, 144 h, read-out: IC50 in HCC1806 Cells
Description: CellTiter-Glo (CTG) is a rapid cell viability test method based on ATP detection. […] Adenosine triphosphate (ATP) participates in various enzymatic reactions in organisms and is an indicator of living cell metabolism. Its content directly reflects the number of living cells and cell status. During the experiment, equal volume of CTG reagent is added to the cultured cells to measure the luminescence value. The chemiluminescent signal value is proportional to the amount of ATP, thus reflecting the number of viable cells. Therefore, cell viability can be obtained by detecting the ATP content. Compounds that affect cell viability will inhibit cell viability in a concentration-dependent manner, allowing a curve to be fitted to obtain the IC50 value.
The experimental procedure is as follows: • 11. Place the cell suspension in a 15 mL centrifuge tube, centrifuge at 1000 rpm for 5 min at room temperature, discard the supernatant, and collect the cell pellet. • 12. Resuspend the cell pellet with preheated complete cell culture medium (RPMI1640+10%FBS+1%PS), and use a Countess® automated cell counter to detect cell viability and density. The cell viability must be above 90%. • 13. […] Transfer the compound solution to a 96-well plate seeded with cells (final concentration of DMSO 0.1%), and place in a cell incubator at 37°C, 5% CO2 for 6 days. • 15. […] Protect from light during the whole process. Perform optical signal readings using a SpectraMax i3x reader. • 16. Data analysis: Remaining activity (%) = 100% * (1 - ((LumDMSO - Lummedium) - Lumsample) / (LumDMSO - LumPBS/medium)). Use GraphPad Prism 9.0 software to draw an S-shaped dose-survival rate curve and calculate the IC50 value using a nonlinear regression model.

AURKA = biological target: T1, AURKA (Homo sapiens, UniProt O14965); assay type: cell-based
T1 construct: endogenous in cells; host or cells: Jurkat cells
T1 sequence (O14965 1-403): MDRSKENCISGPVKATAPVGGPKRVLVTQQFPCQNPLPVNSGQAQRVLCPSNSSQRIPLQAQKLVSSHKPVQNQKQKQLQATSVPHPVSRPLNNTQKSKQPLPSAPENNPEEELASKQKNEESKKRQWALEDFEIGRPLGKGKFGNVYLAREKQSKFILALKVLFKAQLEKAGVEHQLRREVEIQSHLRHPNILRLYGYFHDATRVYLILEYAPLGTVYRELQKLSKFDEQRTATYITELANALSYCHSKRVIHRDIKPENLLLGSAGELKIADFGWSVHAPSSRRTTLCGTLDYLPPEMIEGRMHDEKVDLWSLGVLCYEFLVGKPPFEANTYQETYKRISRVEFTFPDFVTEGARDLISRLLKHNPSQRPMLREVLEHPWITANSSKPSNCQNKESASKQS
In short: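 Jurkat cells seeded at 1×10^6 cells/500 µL and treated with compound; lysates run on SDS-PAGE, blotted to nitrocellulose and probed overnight at 4°C for AURKA. Chemiluminescent or fluorescent band intensity fitted to a curve to give DC50 for protein degradation.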

[1] = 100 nM compound, Jurkat cells, 24 h, Table 1
[2] = 1 µM compound, Jurkat cells, 24 h, Table 1

Row | Structure (SMILES) | IC50 (HCC1806 cells) | Percentage of AURKA Degradation Induced by 100 nM Compound in Jurkat Cells (AURKA; [1]) | Percentage of AURKA Degradation Induced by 1 µM Compound in Jurkat Cells (AURKA; [2]) | Percentage of AURKA Degradation Induced by 100 nM Compound in Jurkat Cells (AURKA) | Percentage of AURKA Degradation Induced by 1 µM Compound in Jurkat Cells (AURKA)
1 | O=C1CCN(c2ccc(N3CCC4(CC3)CC(NC(=O)c3ccc(Nc5ncc6c(n5)-c5ccc(Cl)cc5C(c5c(F)cccc5F)=NC6)cc3)C4)nc2)C(=O)N1 [Compound A55] | < 1 µM | +++ (Degradation > 70%) | +++ (Degradation > 70%) |  | 
2 | O=C1CCN(c2ccc(N3CC4(CCC(NC(=O)c5ccc(Nc6ncc7c(n6)-c6ccc(Cl)cc6C(c6c(F)cccc6F)=NC7)cc5)CC4)C3)cc2)C(=O)N1 [Compound A56] | < 1 µM | +++ (Degradation > 70%) | +++ (Degradation > 70%) |  | 
3 | COc1cc(Nc2ncc3c(n2)-c2ccc(Cl)cc2C(c2c(F)cccc2OC)=NC3)ccc1C(=O)NC1CCC2(CC1)CN(c1ccc(N3CCC(=O)NC3=O)cc1)C2 [Compound A57] | < 1 µM | +++ (Degradation > 70%) | +++ (Degradation > 70%) |  | 
4 | COc1cc(Nc2ncc3c(n2)-c2ccc(Cl)cc2C(c2c(F)cccc2OC)=NC3)ccc1C(=O)NC1CC2(C1)CN(c1ccc(N3CCC(=O)NC3=O)cc1)C2 [Compound A58] | < 1 µM | ++ (30% < Degradation ≤ 70%) | ++ (30% < Degradation ≤ 70%) |  | 
5 | O=C1CCN(c2ccc(N3CC4(CC(NC(=O)c5ccc(Nc6ncc7c(n6)-c6ccc(Cl)cc6C(c6c(F)cccc6F)=NC7)cc5)C4)C3)cc2)C(=O)N1 [Compound A59] | < 1 µM | ++ (30% < Degradation ≤ 70%) | +++ (Degradation > 70%) |  | 
6 | O=C1CCN(c2ccc(N3CC4(CCC(NC(=O)c5ccc(Nc6ncc7c(n6)-c6ccc(Cl)cc6C(c6c(F)cccc6F)=NC7)cc5)CC4)C3)nc2)C(=O)N1 [Compound A61] | < 1 µM | +++ (Degradation > 70%) | +++ (Degradation > 70%) |  | 
7 | COc1cccc(F)c1C1=NCc2cnc(Nc3ccc(C(=O)NC4CC5(C4)CN(c4cccc(N6CCC(=O)NC6=O)c4)C5)cc3)nc2-c2ccc(Cl)cc21 [Compound A63] | < 1 µM | ++ (30% < Degradation ≤ 70%) | ++ (30% < Degradation ≤ 70%) |  | 
8 | O=C1CCN(c2ccc(N3CCN(CCNC(=O)c4ccc(Nc5ncc6c(n5)-c5ccc(Cl)cc5C(c5c(F)cccc5F)=NC6)cc4)CC3=O)nc2)C(=O)N1 [Compound A64] | < 1 µM |  |  | +++ (key: +: Degradation ≤ 30%; ++: 30% < Degradation ≤ 70%; +++: Degradation > 70%) | ++ (key: +: Degradation ≤ 30%; ++: 30% < Degradation ≤ 70%; +++: Degradation > 70%)
9 | COc1cccc(F)c1C1=NCc2cnc(Nc3ccc(C(=O)NCCN4CCN(c5ccc(N6CCC(=O)NC6=O)cn5)C(=O)C4)cc3)nc2-c2ccc(Cl)cc21 [Compound A65] | < 1 µM | +++ (Degradation > 70%) | ++ (30% < Degradation ≤ 70%) |  | 
10 | O=C1CCN(c2ccc(N3CCN(CCNC(=O)c4ccc(Nc5ncc6c(n5)-c5ccc(Cl)cc5C(c5c(F)cccc5F)=NC6)cc4)CC34CC4)nc2)C(=O)N1 [Compound A66] | < 1 µM | + (Degradation ≤ 30%) | + (Degradation ≤ 30%) |  | 
11 | COc1cccc(F)c1C1=NCc2cnc(Nc3ccc(C(=O)NCCN4CCN(c5ccc(N6CCC(=O)NC6=O)cn5)C5(CC5)C4)cc3)nc2-c2ccc(Cl)cc21 [Compound A67] | < 1 µM | + (Degradation ≤ 30%) | + (Degradation ≤ 30%) |  | 
12 | COc1cccc(F)c1C1=NCc2cnc(Nc3ccc(C(=O)NCCN4CCN(c5ccc(N6CCC(=O)NC6=O)cn5)CC45CC5)cc3)nc2-c2ccc(Cl)cc21 [Compound A69] | < 1 µM | +++ (Degradation > 70%) | +++ (Degradation > 70%) |  | 
13 | O=C1CCN(c2ccc(N3CC(CN4CC(NC(=O)c5ccc(Nc6ncc7c(n6)-c6ccc(Cl)cc6C(c6c(F)cccc6F)=NC7)cc5)C4)C3)cc2)C(=O)N1 [Compound A70] | < 1 µM | +++ (Degradation > 70%) | +++ (Degradation > 70%) |  | 
14 | COc1cccc(F)c1C1=NCc2cnc(Nc3ccc(C(=O)NC4CN(CC5CN(c6ccc(N7CCC(=O)NC7=O)cc6)C5)C4)cc3)nc2-c2ccc(Cl)cc21 [Compound A71] | < 1 µM | +++ (Degradation > 70%) | +++ (Degradation > 70%) |  | 
15 | O=C1CCN(c2cccc(N3CC(CN4CC(NC(=O)c5ccc(Nc6ncc7c(n6)-c6ccc(Cl)cc6C(c6c(F)cccc6F)=NC7)cc5)C4)C3)c2)C(=O)N1 [Compound A72] | < 1 µM | +++ (Degradation > 70%) | +++ (Degradation > 70%) |  | 
16 | COc1cccc(F)c1C1=NCc2cnc(Nc3ccc(C(=O)NC4CN(CC5CN(c6cccc(N7CCC(=O)NC7=O)c6)C5)C4)cc3)nc2-c2ccc(Cl)cc21 [Compound A73] | < 1 µM | +++ (Degradation > 70%) | +++ (Degradation > 70%) |  | 
17 | O=C1CCN(c2cccc(N3CC(N4CC(NC(=O)c5ccc(Nc6ncc7c(n6)-c6ccc(Cl)cc6C(c6c(F)cccc6F)=NC7)cc5)C4)C3)c2)C(=O)N1 [Compound A74] | < 1 µM | ++ (30% < Degradation ≤ 70%) | ++ (30% < Degradation ≤ 70%) |  | 
18 | O=C1CCC(N2CCN(C3CN(CCNC(=O)c4ccc(Nc5ncc6c(n5)-c5ccc(Cl)cc5C(c5c(F)cccc5F)=NC6)cc4)C3)CC2=O)C(=O)N1 (stereo not drawn) [Compound A75] | 1 to 10 µM |  |  | ++ (key: +: Degradation ≤ 30%; ++: 30% < Degradation ≤ 70%; +++: Degradation > 70%) | ++ (key: +: Degradation ≤ 30%; ++: 30% < Degradation ≤ 70%; +++: Degradation > 70%)
19 | COc1cccc(F)c1C1=NCc2cnc(Nc3ccc(C(=O)NC45CC(C#Cc6cccc(N7CCC(=O)NC7=O)c6)(C4)C5)cc3)nc2-c2ccc(Cl)cc21 [Compound A77] | 1 to 10 µM |  |  | ++ (key: +: Degradation ≤ 30%; ++: 30% < Degradation ≤ 70%; +++: Degradation > 70%) | ++ (key: +: Degradation ≤ 30%; ++: 30% < Degradation ≤ 70%; +++: Degradation > 70%)
20 | COc1cc(Nc2ncc3c(n2)-c2ccc(Cl)cc2C(c2c(F)cccc2OC)=NC3)ccc1C(=O)NC1CC2(CCN(c3ncc(N4CCC(=O)NC4=O)s3)CC2)C1 [Compound A80] | < 1 µM | ++ (30% < Degradation ≤ 70%) | +++ (Degradation > 70%) |  | 
